Entries after “also recorded” stand apart in the source; their conditions may differ. Counter-ions that a name gives are not always drawn. One block for each compound: values may come before it.
Columns and labels:
[1] = system: SW-480 colon adenocarcinoma cells
[2] = molecular target: cGMP PDE purified from human colon HT-29 cultured tumor cells (Homo sapiens, UniProt O76074); assay: cGMP PDE inhibition assay; type: biochemical; conditions: for PDE Inhibition: Table 9 qualitative profile; for IC50: read-out: IC50 for inhibition of cGMP PDE
[3] = system: premalignant lesions in mouse mammary gland organ culture; assay: Mammary gland organ culture model; type: cell-based; conditions: Table 9 qualitative profile; also: key: −: Not active; +: Slightly active; + +: Moderately active; + + +: Strongly active; + + + +: Highly active
From the text: Test compounds identified by the above methods can be tested for antineoplastic activity by their ability to inhibit the incidence of pre-neoplastic lesions in a mammary gland organ culture system. This mouse mammary gland organ culture technique has been successfully used by other investigators to study the effects of known antineoplastic agents such as certain NSAIDs, retinoids, tamoxifen, selenium, and certain natural products, and is useful for validation of the screening method of the present invention.
For example, female BALB/c mice can be treated with a combination of estradiol and progesterone daily, in order to prime the glands to be responsive to hormones in vitro. The animals are sacrificed, and thoracic mammary glands are excised aseptically and incubated for ten days in growth media supplemented with insulin, prolactin, hydrocortisone, and aldosterone. DMBA (7,12-dimethylbenz(a)anthracene) is added to medium to induce the formation of premalignant lesions. Fully developed glands are then deprived of prolactin, hydrocortisone, and aldosterone, resulting in the regression of the glands but not the pre-malignant lesions.
The test compound is dissolved in DMSO and added to the culture media for the duration of the culture period. At the end of the culture period, the glands are fixed in 10% formalin, stained with alum carmine, and mounted on glass slides. The incidence of forming mammary lesions is the ratio of the glands with mammary lesions to […]. The incidence of mammary lesions in test compound treated glands is compared with that of the untreated glands.
The extent of the area occupied by the mammary lesions can be quantitated by projecting an image of the gland onto a digitation pad. The area covered by the gland is traced on the pad and considered as 100% of the area. The space covered by each of the non-regressed structures is also outlined on the digitization pad and quantitated by the computer.
Mammary gland organ culture experiment were performed as previously described (Mehta and Moon, Cancer Research, 46: 5832-5835, 1986).

[4] = system: HT-29 colon adenocarcinoma cells; assay: Apoptosis by DNA fragmentation assay in HT-29 cells; type: cell-based, human; conditions: for Apoptosis: Table 9 qualitative profile; as to Apoptosis: key: −: Not active; +: Slightly active; + +: Moderately active; + + +: Strongly active; + + + +: Highly active
HT-29 cells = assay: Growth inhibition of HT-29 cells (SRB assay; trypan blue counting in time course); type: cell-based, human; conditions: for Growth Inhibition: Table 9 qualitative profile
Cyclooxygenase (COX) = molecular target: T1, Cyclooxygenase (COX) (Ovis aries, UniProt P05979); assay: COX inhibition assay, single dose screen (Table 2); type: biochemical
T1 sequence (P05979 25-600): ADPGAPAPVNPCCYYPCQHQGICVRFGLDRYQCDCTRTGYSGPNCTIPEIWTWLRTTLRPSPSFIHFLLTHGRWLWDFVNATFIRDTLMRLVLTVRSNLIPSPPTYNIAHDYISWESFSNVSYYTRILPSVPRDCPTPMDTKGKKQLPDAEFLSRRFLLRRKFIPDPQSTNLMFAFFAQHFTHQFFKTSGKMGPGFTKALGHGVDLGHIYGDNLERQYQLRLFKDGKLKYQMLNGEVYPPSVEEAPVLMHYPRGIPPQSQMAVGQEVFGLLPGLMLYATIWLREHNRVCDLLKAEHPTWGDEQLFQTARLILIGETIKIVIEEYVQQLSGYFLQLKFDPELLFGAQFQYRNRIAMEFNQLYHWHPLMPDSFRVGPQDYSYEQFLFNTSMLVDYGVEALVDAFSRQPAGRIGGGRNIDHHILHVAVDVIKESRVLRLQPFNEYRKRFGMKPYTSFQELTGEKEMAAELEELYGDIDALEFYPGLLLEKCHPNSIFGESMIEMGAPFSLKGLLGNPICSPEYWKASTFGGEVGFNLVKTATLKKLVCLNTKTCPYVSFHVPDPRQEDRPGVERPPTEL

[5] = molecular target: T2, cGMP binding sites of GST-cGB-PDE5 fusion protein (Homo sapiens, UniProt O76074); assay: cGMP binding assay with GST-cGB-PDE5 fusion protein; conditions: 3H-cGMP 2 μM
T2 construct: made in house; host or cells: E. coli BL21 (DE3)

[6] = system: SW-480 colon adenocarcinoma cells; assay: Apoptosis fold induction protocol (DNA fragmentation, Table 4); conditions: Homo sapiens, SW480, read-out: Fold induction at 100 μM (apoptosis), 100 μM; cell line not given
[7] = molecular target: T3, purified cyclooxygenase (Type 1) from ram seminal vesicles (Ovis aries, UniProt P05979); assay: Purified cyclooxygenase (Type 1) activity; type: biochemical; conditions: FIG. 5
T3 construct: using purified cyclooxygenase from ram seminal vesicles as described previously; from tissue; host or cells: ram seminal vesicles
T3 sequence (P05979 25-600): T1 sequence (P05979 25-600)

[8] = system: PDE4 purified from human colon HT-29 cultured tumor cells; assay: PDE4 inhibition assay; type: biochemical
Experimental: (Thompson, W. J., Teraski, W. L., Epstein, P. M., Strada, S. J., Advances in Cyclic Nucleotide Research, 10:69-92, 1979, which is incorporated herein by reference). […] The mixture is incubated at 30° C. for 10 minutes with isolated PDE of this invention. Reactions are terminated, for example, by boiling the reaction mixture for 75 seconds. After cooling on ice, 100 μl of 0.5 mg/mL snake venom (O. Hannah venom available from Sigma) is added and incubated for 10 minutes at 30° C. This reaction is then terminated by the addition of an alcohol, e.g. 1 mL of 100% methanol. Assay samples are applied to 1 mL Dowex 1-X8 column; and washed with 1 mL of 100% methanol. The amount of radioactivity in the breakthrough and the wash from the column is combined and measured with a scintillation counter. The degree of phosphodiesterase inhibition is determined by calculating the amount of radioactivity in drug-treated reactions and comparing against a control sample (a reaction mixture lacking the tested compound but with drug solvent).

[9] = molecular target: T4, PDE Peak A (PDE5) from SW480 cells (Homo sapiens, UniProt O76074); assay: cGMP hydrolysis by PDE Peak A (PDE5) isolated from SW480 cells; type: biochemical
T4 construct: To isolate the novel phosphodiesterase from SW480, approximately four hundred million SW480 cells were grown to confluence; endogenous in cells; host or cells: SW480 colon cancer cells; 105,000 g supernatant, DEAE-Trisacryl M fraction

[10] = molecular target: T5, novel cGMP-specific PDE Peak B from SW480 cells (Homo sapiens, UniProt O00408); assay: cGMP hydrolysis by novel PDE Peak B isolated from SW480 cells; type: biochemical
T5 construct: IC50 Peak B (μM)
T5 sequence (O00408 whole entry): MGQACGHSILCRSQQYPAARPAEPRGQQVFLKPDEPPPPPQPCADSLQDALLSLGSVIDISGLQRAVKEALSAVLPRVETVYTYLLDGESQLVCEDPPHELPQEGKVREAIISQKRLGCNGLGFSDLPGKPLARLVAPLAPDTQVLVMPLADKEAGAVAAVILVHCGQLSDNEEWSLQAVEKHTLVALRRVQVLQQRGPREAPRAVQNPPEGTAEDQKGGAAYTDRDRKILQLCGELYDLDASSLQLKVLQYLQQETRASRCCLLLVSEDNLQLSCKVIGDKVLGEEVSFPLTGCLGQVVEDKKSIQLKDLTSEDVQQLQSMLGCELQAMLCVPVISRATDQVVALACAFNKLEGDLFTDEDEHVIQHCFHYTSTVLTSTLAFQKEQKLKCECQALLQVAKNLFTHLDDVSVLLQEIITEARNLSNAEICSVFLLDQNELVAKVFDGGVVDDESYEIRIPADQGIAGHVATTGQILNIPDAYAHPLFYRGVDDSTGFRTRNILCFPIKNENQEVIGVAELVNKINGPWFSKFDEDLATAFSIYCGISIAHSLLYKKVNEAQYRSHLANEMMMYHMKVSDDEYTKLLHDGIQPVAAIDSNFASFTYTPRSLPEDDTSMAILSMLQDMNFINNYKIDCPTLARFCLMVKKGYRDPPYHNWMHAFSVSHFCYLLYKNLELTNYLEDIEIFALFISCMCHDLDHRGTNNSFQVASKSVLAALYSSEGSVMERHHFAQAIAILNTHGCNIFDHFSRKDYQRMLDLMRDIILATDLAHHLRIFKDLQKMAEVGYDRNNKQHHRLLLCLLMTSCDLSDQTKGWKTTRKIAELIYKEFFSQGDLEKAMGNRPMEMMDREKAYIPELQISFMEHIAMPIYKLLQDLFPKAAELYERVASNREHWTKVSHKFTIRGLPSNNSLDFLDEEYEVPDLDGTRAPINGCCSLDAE

28-day study in rats = type: in vivo
[11] = Single, escalating dose human study; type: in vivo
[12] = Seven-day dose-range finding study in rats; type: in vivo; conditions: any dose level
[13] = system: PrEC primary prostate epithelial cells derived from normal prostate; assay: Histone-associated DNA fragmentation in PrEC cells; type: cell-based; conditions: 50 μM, up to 4 days
Experimental: (§1) The androgen-sensitive prostate tumor cell line, LNCaP (from ATCC (Rockville, Md.)) was propagated under standard conditions using […] medium containing 5% fetal calve serum and 2 mM glutamine. Primary prostate epithelial cell cultures (PrEC) derived from normal prostate (from Clonetics Inc. (San Diego, Calif.)) were grown under the same conditions as the tumor cell line except a serum-free medium optimized for the growth of such cultures was used (Clonetics Inc). For the experiments, LNCaP or PrEC cells were seeded in 96 well plates at a density of 10,000 cells per well. After 24 hours, the cells were treated with either vehicle (0.1% DMSO) or 50 μM Compound I (free base) solubilized in DMSO. After various drug treatment times (4, 24, 48, 72, or 99 hours) the cells were lysed and processed for measurement of histone-associated DNA as an indicator of apoptotic cell death (see, Piazza et al., Cancer Research 57: 2452-2459, 1997).

[14] = system: LNCaP prostate tumor cell line; assay: Histone-associated DNA fragmentation in LNCaP cells; type: cell-based; conditions: 50 μM, up to 4 days
Experimental: as §1

[15] = dog, in vivo
human breast xenograft = conditions: in vivo; cited from earlier work

% Inhibition at 10 μM (cGMP PDE) [2]: <25% | PDE Inhibition [2]: − | % Inhibition at 100 μM (cyclooxygenase) (Cyclooxygenase (COX); 100 μM): <25%
SMILES: CCN(CC)CCSC12CC(=O)OC1(C)/C(=C/c1ccc(S(C)(=O)=O)cc1)c1ccc(F)cc12 (racemic) [A, rac-threo-(E)-1-(N,N′-diethylaminoethanethio)-1-(butan-1′,4′-olido)-[3′,4′:1,2]-6-fluoro-2-methyl-3-(p-methylsulfonylbenzylidene)-indan]
Fold induction at 100 μM (apoptosis) [1]: <2.0 fold | Mammary Gland Organ Culture [3]: + + | Apoptosis [4]: + + | % Inhibition at 100 μM (growth) (HT-29 cells; 100 μM): 68% | Growth Inhibition (HT-29 cells): + + +

PDE Inhibition [2]: + + + | inhibition at 10 µM ([2]; read-out: % Inhibition at 10 μM (cGMP PDE), 10 μM): < 25% | IC50 [2]: 18 µM | inhibition at 20 µM ([2]; read-out: inhibition of cGMP PDE at 20 μM, 20 μM): > 50% | EC50 ([4]; Homo sapiens, HT-29, 48 hours): ~175 µM | inhibition at 100 µM (Cyclooxygenase (COX)): < 25% | COX Inhibition (Cyclooxygenase (COX); Table 9 qualitative profile): − | IC50 [8]: 58 µM
SMILES: COc1cc(/C=C2/C(C)=C(CC(=O)O)c3cc(F)ccc32)cc(OC)c1OC [Compound B, (Z)-5-Fluoro-2-methyl-1-(3,4,5-trimethoxybenzylidene)-3-acetic acid]
competition with cGMP in binding of GST-cGB-PDE5 [5]: do not bind to the cGMP binding sites of PDE5 | fold induction at 100 µM [6]: > 2 | Mammary Gland Organ Culture [3]: + + | Apoptosis [4]: + + + | Growth Inhibition (HT-29 cells): + + + | COX-I inhibition [7]: neither test compound B and E significantly inhibits COX-I

% Inhibition at 10 μM (cGMP PDE) [2]: 75% | PDE Inhibition [2]: + + + + | IC50 [2]: 0.08 µM
SMILES: COc1cc(/C=C2/C(C)=C(CC(=O)NCc3ccccc3)c3cc(F)ccc32)cc(OC)c1OC [Compound E, (Z)-5-Fluoro-2-methyl-1-(3,4,5-trimethoxybenzylidene)-3-indenylacetamide, N-benzyl]
competitive (with cGMP) inhibition/binding, Peak A [9]: competitively (with cGMP) bind; also recorded: competitively inhibited | Mammary Gland Organ Culture [3]: + + + + | Apoptosis [4]: + + + + | competitive (with cGMP) inhibition/binding, Peak B [10]: competitively (with cGMP) binds; also recorded: competitively inhibited | Growth Inhibition (HT-29 cells): + + + + | COX-I inhibition [7]: neither test compound B and E significantly inhibits COX-I

SMILES: CC1=C(CC(=O)NCc2ccccc2)c2cc(F)ccc2/C1=C\c1ccncc1 [Compound I, (Z)-5-fluoro-2-methyl-(4-pyridylidene)-3-(N-benzyl)indenylacetamide hydrochloride]
liver weights, 28-day study (28-day study in rats; 2000 mg/kg/day): statistically significant increase in liver weights | thyroid weights, 28-day study (28-day study in rats; 2000 mg/kg/day): statistically significant increases in thyroid weights | histopathological evaluation, 28-day study (28-day study in rats; generally limited to a small number of animals at 2000 mg/kg/day): traces of follicular cell hypertrophy, increased numbers of mitotic figures (suggestive of possible cell proliferation) in the thyroid gland and mild centrilobular hypertrophy in the liver | safety in human study [11]: safe | hematology, blood chemistry, microscopic pathology, seven-day study [12]: No hematological or blood chemistry changes nor any microscopic pathology changes | DNA fragmentation in PrEC cells [13]: did not affect DNA fragmentation | histone-associated fragmented DNA in LNCaP cell cultures [14]: time-dependent increase | drug-related effects, single and seven consecutive doses in dogs [15]: At no time in either dosing phase were any obvious signs of drug-related effects observed | signs of toxicity, single dose in dogs ([15]; 1000 mg/kg): no signs of toxicity

SMILES: COc1cc2ncnc(Nc3ccc(F)c(Cl)c3)c2cc1OCCCN1CCOCC1 [Iressa, 4-quinazolinamine, N-(3-chloro-4-fluorophenyl)-7-methoxy-6-[3-(4-morpholinyl)propoxy]-(9CI)]
human breast xenograft growth (human breast xenograft): inhibits human breast xenograft growth

— patent US20030232862A1 (priority 2002, published 2003)
